Source: patent US20210038559A1, “CANNABINOIDS AND DERIVATIVES FOR PROMOTING IMMUNOGENICITY OF TUMOR AND INFECTED CELLS” (priority 2018, published 2021)
Structures can show the parent of a compound that is named as a salt.

What follows are molecules tested on MHC-I expression by COLO 205 cells (assay: cells). Settings: not given.
Type: cell-based, human
Method: A panel of synthetic cannabinoids (Cayman Chemical, #9002891) was tested for MHC class I-inducing capability in COLO 205 cells as described above. COLO 205 cells were treated with the compounds at a concentration of 35 μM and evaluated for cell surface MHC class I expression after 48 hours. Cells were harvested, stained with MHC-I mAb W6/32 (Thermo Fisher). MHC-I expression was determined by flow cytometry.
CCCCCn1cc(C(=O)NC23CC4CC(CC(C4)C2)C3)c2ccccc21 [Example 108, 1-pentyl-N-tricyclo[3.3.1.1]dec-1-yl-1H-indole-3-carboxamide] was tested, and the “Induction Fold” value was 2.38 Fold. In the case of CCCCn1c(C)c(C(=O)c2cccc3ccccc23)c2ccccc21 [Example 122, (1-butyl-2-methyl-1H-indol-3-yl)-1-naphthalenyl-methanone], the “Induction Fold” value is reported as 2.31 Fold. With O=C(c1cccc2ccccc12)c1nn(CCCCCF)c2ccccc12 [Example 134, [1-(5-fluoropentyl)-1H-indazol-3-yl]-1-naphthalenyl-methanone] the “Induction Fold” value was 2.23 Fold.

Same assay, conditions: Homo sapiens, COLO 205, 48 h, MHC-I expression, COLO 205 cells, compounds at 35 μM, 48 hours, flow cytometry (W6/32); read-out: Induction Fold
For O=C(c1cccc2ccccc12)c1nn(CCCCCBr)c2ccccc12 [Example 97, (1-(5-bromopentyl)-1H-indazol-3-yl)(naphthalen-1-yl)methanone], the fold induction at 35 µM was 2.44. In the case of CCCCCn1cc(C(=O)Oc2cccc3cnccc23)c2ccccc21 [Example 99, isoquinolin-5-yl 1-pentyl-1H-indole-3-carboxylate], the fold induction at 35 µM is reported as 2.43. In the case of CCCCCn1nc(C(=O)N[C@H](C(N)=O)C(C)C)c2ccccc21 [Example 100, (S)-N-(1-amino-3-methyl-1-oxobutan-2-yl)-1-pentyl-1H-indazole-3-carboxamide], the fold induction at 35 µM is reported as 2.43. Work on CCCCCn1cc(C(=O)Cc2ccccc2C)c2ccccc21 [Example 101, 2-(2-methylphenyl)-1-(1-pentyl-1H-indol-3-yl)-ethanone] yielded a fold induction at 35 µM of 2.42. CC(F)CCCn1cc(C(=O)Oc2cccc3cccnc23)c2ccccc21 (centres unmarked) [Example 102, quinolin-8-yl 1-(4-fluoropentyl)-1H-indole-3-carboxylate] gave a fold induction at 35 µM of 2.41. With CCC(C)(C)n1cc(C(=O)c2cccc3ccccc23)c2ccccc21 [Example 103, naphthalen-1-yl(1-(tert-pentyl)-1H-indol-3-yl)methanone] the fold induction at 35 µM was 2.41. For CCCC(F)Cn1cc(C(=O)c2cccc3ccccc23)c2ccccc21 (centres unmarked) [Example 104, (1-(2-fluoropentyl)-1H-indol-3-yl)(naphthalen-1-yl)methanone], the fold induction at 35 µM was 2.41. For O=C(Oc1cccc2cnccc12)c1cn(CCCCCF)c2ccccc12 [Example 105, isoquinolin-5-yl 1-(5-fluoropentyl)-1H-indole-3-carboxylate], the fold induction at 35 µM was 2.4. For CCCCCn1cc(C(=O)Cc2ccccc2OC)c2ccccc21 [Example 106, 1-(1-pentyl-1H-indol-3-yl)-2-(2-methoxyphenyl)-ethanone], the fold induction at 35 µM was 2.39. CC1(C)C(C(=O)c2cn(CCCC(F)(F)F)c3ccccc23)C1(C)C [Example 110, (2,2,3,3-tetramethylcyclopropyl)[1-(4,4,4-trifluorobutyl)-1H-indol-3-yl]-methanone] gave a fold induction at 35 µM of 2.37. With CC1(C)C(C(=O)N/N=C2\C(=O)N(CCCCCF)c3ccccc32)C1(C)C [Example 111, 2,2,3,3-tetramethyl-cyclopropanecarboxylic acid (2Z)-2-[1-(5-fluoropentyl)-1,2-dihydro-2-oxo-3H-indol-3-ylidene]hydrazide] the fold induction at 35 µM was 2.37. O=C(c1ccc(F)c2ccccc12)c1cn(CCCCCF)c2ccccc12 [Example 112, (4-fluoro-1-naphthalenyl)[1-(5-fluoropentyl)-1H-indol-3-yl]-methanone] showed a fold induction at 35 µM of 2.37. In the case of CC(Cl)CCCn1cc(C(=O)C2C(C)(C)C2(C)C)c2ccccc21 (centres unmarked) [Example 113, (1-(4-chloropentyl)-1H-indol-3-yl)(2,2,3,3-tetramethylcyclopropyl)methanone], the fold induction at 35 µM is reported as 2.36. Work on CCC(Cl)CCn1cc(C(=O)c2cccc3ccccc23)c2ccccc21 (centres unmarked) [Example 114, (1-(3-chloropentyl)-1H-indol-3-yl)(naphthalen-1-yl)methanone] yielded a fold induction at 35 µM of 2.35. In the case of CCCCCn1cc(C(=O)c2cccc3cccc(CC)c23)c2ccccc21 [Example 115, (8-ethylnaphthalen-1-yl)(1-pentyl-1H-indol-3-yl)methanone], the fold induction at 35 µM is reported as 2.35. Molecule O=C(c1cccnc1)c1cn(CCCCCF)c2ccccc12 [Example 116, (1-(5-fluoropentyl)-1H-indol-3-yl)(pyridin-3-yl)methanone, monohydrochloride] has a fold induction at 35 µM of 2.34. In the case of CCCCCCCn1cc(C(=O)C2C(C)(C)C2(C)C)c2ccccc21 [Example 118, (1-heptyl-1H-indol-3-yl)(2,2,3,3-tetramethylcyclopropyl)-methanone], the fold induction at 35 µM is reported as 2.33. With CC(C)(C)C(NC(=O)c1cc(-c2ccc(F)cc2)nn1CCCCCF)C(N)=O (centres unmarked) [Example 119, N-[1-(aminocarbonyl)-2,2-dimethylpropyl]-1-(5-fluoropentyl)-3-(4-fluorophenyl)-1H-pyrazole-5-carboxamide] the fold induction at 35 µM was 2.33. CCCCCn1cc(C(=O)Cc2ccccc2Br)c2ccccc21 [Example 120, 2-(2-bromophenyl)-1-(1-pentyl-1H-indol-3-yl)-ethanone] showed a fold induction at 35 µM of 2.32. For COc1ccc2c(c1)c(CC(=O)N1CCOCC1)c(C)n2C(=O)c1ccc(Cl)cc1 [Example 121, 2-[1-(4-chlorobenzoyl)-5-methoxy-2-methyl-1H-indol-3-yl]-1-(4-morpholinyl)-ethanone], the fold induction at 35 µM was 2.32. For CCCCCn1c(C(=O)c2cccc3ccccc23)nc2ccccc21 [Example 123, naphthalen-1-yl(1-pentyl-1H-benzo[d]imidazol-2-yl)methanone], the fold induction at 35 µM was 2.31. Molecule O=C(Oc1cncc2ccccc12)c1cn(CC2CCCCC2)c2ccccc12 [Example 124, isoquinolin-4-yl 1-(cyclohexylmethyl)-1H-indole-3-carboxylate] has a fold induction at 35 µM of 2.3. In the case of Cc1c(C(=O)C2C(C)(C)C2(C)C)c2ccccc2n1CCCCCF [Example 126, (1-(5-fluoropentyl)-2-methyl-1H-indol-3-yl)(2,2,3,3-tetramethylcyclopropyl)methanone], the fold induction at 35 µM is reported as 2.29. With CCC(C)n1cc(C(=O)c2cccc3ccccc23)c2ccccc21 (centres unmarked) [Example 127, (1-(sec-butyl)-1H-indol-3-yl)(naphthalen-1-yl)methanone] the fold induction at 35 µM was 2.29. CCC(F)CCn1cc(C(=O)c2cccc3ccccc23)c2ccccc21 (centres unmarked) [Example 128, (1-(3-fluoropentyl)-1H-indol-3-yl)(naphthalen-1-yl)methanone] showed a fold induction at 35 µM of 2.28. Work on CCCCCn1cc(C(=O)c2ccc(OC)cc2)c2ccccc21 [Example 129, (4-methoxyphenyl)(1-pentyl-1H-indol-3-yl)methanone] yielded a fold induction at 35 µM of 2.27. O=C(c1cccc(I)c1)c1cn(CCCCCF)c2ccccc12 [Example 130, (1-(5-fluoropentyl)-1H-indol-3-yl)(3-iodophenyl)methanone] gave a fold induction at 35 µM of 2.26. Work on CCCCCn1cc(C(=O)Oc2cccc3ncccc23)c2ccccc21 [Example 131, quinolin-5-yl 1-pentyl-1H-indole-3-carboxylate] yielded a fold induction at 35 µM of 2.26. C/C(=C\C(=O)c1cn(CCN2CCOCC2)c2ccccc12)C(C)(C)C [Example 132, (E)-3,4,4-trimethyl-1-(1-(2-morpholinoethyl)-1H-indol-3-yl)pent-2-en-1-one] gave a fold induction at 35 µM of 2.25. CCC(F)CCn1cc(C(=O)C2C(C)(C)C2(C)C)c2ccccc21 (centres unmarked) [Example 133, [1-(3-fluoropentyl)-1H-indol-3-yl] (2,2,3,3-tetramethylcyclopropyl)-methanone] showed a fold induction at 35 µM of 2.23. Molecule O=C(Oc1cnc2ccccc2c1)c1cn(CCCCCF)c2ccccc12 [Example 136, quinolin-3-yl 1-(5-fluoropentyl)-1H-indole-3-carboxylate] has a fold induction at 35 µM of 2.22. Molecule CC1(C)C(C(=O)c2cn(CCCCCCl)c3ccccc23)C1(C)C [Example 138, (1-(5-chloropentyl)-1H-indol-3-yl)(2,2,3,3-tetramethylcyclopropyl)methanone] has a fold induction at 35 µM of 2.21. For O=C(c1ccc2ccccc2c1)c1cn(CCCCCF)c2ccccc12 [Example 139, (1-(5-fluoropentyl)-1H-indol-3-yl)(naphthalen-2-yl)methanone], the fold induction at 35 µM was 2.19. In the case of CCCCCn1cc(C(=O)Nc2cccc3cccnc23)c2ccccc21 [Example 141, 1-pentyl-N-8-quinolinyl-1H-indole-3-carboxamide], the fold induction at 35 µM is reported as 2.19. For O=C(c1cccc2ccccc12)c1nn(CCCCCCl)c2ccccc12 [Example 142, (1-(5-chloropentyl)-1H-indazol-3-yl)(naphthalen-1-yl)methanone], the fold induction at 35 µM was 2.19. Molecule CC(C)[C@H](NC(=O)c1nn(Cc2ccccc2F)c2ccccc12)C(N)=O [Example 143, N-[(1S)-1-(aminocarbonyl)-2-methylpropyl]-1-[(2-fluorophenyl)methyl]-1H-indazole-3-carboxamide] has a fold induction at 35 µM of 2.19. For O=C(NC12CC3CC(CC(C3)C1)C2)c1cn(CCCCCF)c2ccccc12 [Example 144, 1-(5-fluoropentyl)-N-tricyclo[3.3.1.13,7] dec-1-yl-1H-indole-3-carboxamide], the fold induction at 35 µM was 2.17. In the case of Cc1ccc(C(=O)c2cn(CCCC(C)F)c3ccccc23)c2ccccc12 (centres unmarked) [Example 145, (1-(4-fluoropentyl)-1H-indol-3-yl)(4-methylnaphthalen-1-yl)methanone], the fold induction at 35 µM is reported as 2.16.

Same assay, conditions: MHC-I expression, COLO 205 cells, compounds at 35 μM, 48 hours, flow cytometry (W6/32)
With CCCCCn1c(C)c(C(=O)c2cccc3ccccc23)c2ccccc21 [Example 98, (2-methyl-1-pentyl-1H-indol-3-yl)-1-naphthalenyl-methanone] the “Induction Fold” value was 2.43 Fold. With O=C(NC12CC3CC(CC(C3)C1)C2)c1nn(Cc2ccc(F)cc2)c2ccccc12 [Example 117, N-((3s,5s,7s)-adamantan-1-yl)-1-(4-fluorobenzyl)-1H-indazole-3-carboxamide] the “Induction Fold” value was 2.34 Fold. In the case of CCCCCCN1C(=O)/C(=N\NC(=O)c2ccccc2)c2ccccc21 [Example 125, (2Z)-2-(1-hexyl-1,2-dihydro-2-oxo-3H-indol-3-ylidene)hydrazide, benzoic acid], the “Induction Fold” value is reported as 2.29 Fold.
